# Patent US20250120916A1, “NANOTECHNOLOGY FOR CHEMOTHERA0PY DRUG CAPTURE” (The Regents of the University of California, priority 2021, published 2025)
# Counter-ions that a name gives are not always drawn. Like-named read-outs stand apart in the source and are kept apart here.
# Tests used:
# [1] = test system: red blood cells (RBCs) in human whole blood; test: Hemolysis assessment (ASTM E2524-08); assay type: cell-based
# Method: Hemolysis assessment: The hemolytic activity of ENCC was measured via exposing human whole blood, withdrawn from 3 healthy volunteer donors by another lab, to varying concentrations of ENCC and measuring the concentration of released hemoglobin in plasma according to the American Society for Testing and Materials (ASTM) E2524-08 (2013) standard analysis of hemolytic activity of nanoparticles.(61) A colorimetric technique was used to measure the oxidation of […] (Drabkin's reagent) at an absorbance of 540 nm A calibration curve was obtained using […] of pure human hemoglobin to quantify the concentration of released hemoglobin in heparinized human whole blood exposed to ENCC The blood samples were diluted in DPBS to have 10±2 mg of hemoglobin per mL. ENCC was added to a microcentrifuge tube, followed by the addition of DPBS (800 μL) and the diluted blood (100 μL). After gently mixing the samples, they were incubated for 3 h±15 min at 37° C. and centrifuged for 15 min at 14000 rpm and ambient temperature. […] A microplate reader (540 nm, BioTek UV/vis Synnergy 2, USA) was then used to measure the relative absorbance of each well against the reagent blank to correct the background (blood-free samples) absorbance. The hemolysis percentage was measured based on the hemoglobin concentration in the samples divided by the total blood hemoglobin (˜10 mg mL−1). […]
# [2] = Hydrodynamic size (DLS) and ζ-potential measurements; assay type: physicochemical
# Method: Hydrodynamic size and ζ-potential measurements: A Zetasizer Nano ZS from Malvern Panalytical Ltd was used to conduct dynamic light scattering (DLS) and electrokinetic measurements in folded capillary cells (DTS1070). Samples were prepared with an ENCC concentration of 0.1 mg mL−1 in 1 mg mL−1 of NaCl solution A final DOX concentration of 0.03 mg mL−1 was used to have an ˜1:10 molar ratio of DOX to the carboxylate of ENCC For ζ-potential measurements on DOX, the concentration was lowered to 0.003 mg mL−1. At least three measurements were taken for each DLS experiment, with 11 runs per measurement. For the ζ-potential tests, the number of measurements was at least three, with up to 100 runs per measurement.
# [3] = test system: fibroblast; settings: literature (75); cited from earlier work
# [4] = test system: NIH/3T3 fibroblasts; test: Biodetoxification test, NIH/3T3 fibroblasts; settings: NIH/3T3, untreated DOX 400 μg mL−1 media, 8 h
# Method: (§1) Biodetoxification tests: To determine the biodetoxification effect of ENCC, 5×10^3 NIH/3T3 cells or HUVECs were seeded in 96-well plates with 200 μL of DMEM supplemented with FBS (10% v/v) and 1% v/v of Pen-Strep or EGM bullet kit HUVEC media, respectively. The cells were allowed to attach to the bottom of wells for 1 h, the media were aspirated, and the cells were rinsed with 200 μL of DPBS, followed by the addition of 200 μL of corresponding media including DOX (final concentration=400 μg mL−1), which was previously detoxified by adding ENCC (final concentration=1 mg mL−1), centrifuged at 1000 rpm for 3 min, and separated from the precipitate. The control experiments were conducted in corresponding DOX-free cell culture media or DOX-containing media without ENCC treatment. Each group consisted of 5 wells. After 8 h, the media was aspirated, the cells were rinsed twice with 200 μL of DPBS, followed by the addition of 100 μL of PrestoBlue™ reagent to each well. The cells were incubated for 1 h, and then the PrestoBlue™ absorbance was recorded using the microplate reader. Immediately afterwards, the cells were again rinsed twice with 200 μL, of DPBS, followed by the addition of 150 μL, of the Live/Dead reagents. The cells were incubated for 90 min and imaged using the fluorescence microscope. The fluorescence images were analyzed using the Imagej Software.(62)
# [5] = Biodetoxification test, NIH/3T3 fibroblasts; settings: mouse, NIH/3T3 fibroblasts
# Method: as §1
# [6] = Biodetoxification test, HUVECs; settings: human
# Method: as §1
# [7] = test system: HUVECs; test: Biodetoxification test, HUVECs; settings: untreated DOX 400 μg mL−1 media, 8 h
# Method: as §1
# [8] = DOX:COO− ~0.1, ENCC 100 μg mL−1
compound,measurement,setting,value
polyethylene glycol [PEG],hemolysis percentage (controls),[1],does not induce significant hemolysis
"COc1cccc2c1C(=O)c1c(O)c3c(c(O)c1C2=O)C[C@@](O)(C(=O)CO)C[C@@H]3O[C@H]1C[C@H](N)[C@H](O)[C@H](C)O1 [DOX, Doxorubicin hydrochloride]",hydrodynamic size after ENCC addition,[2]; [8],~350 nm
same,ζ-potential after ENCC addition,[2]; [8],~−32 mV
same,hydrodynamic size of DOX aggregates,[2]; before ENCC addition,~66 nm
same,ζ-potential of DOX aggregates,[2]; before ENCC addition,~+24 mV
same,DOX concentration that induces fibroblast cellular toxicity,[3],above 5×10^−5 M
same,decrease in metabolic activity (PrestoBlue),[4],more than 2000%
same,"viability at 8 h, 400 μg mL−1",[5],< 10%
same,"viability at 8 h, 400 μg mL−1",[6],~35%
same,decrease in metabolic activity (PrestoBlue),[7],more than 2000%
Triton X-100,hemolysis percentage (controls),"[1]; Triton X-100 1% v/v positive control, PEG 4.4% v/v negative control",> 95%
